# Data reported in patent US11297835B2, “Aqueous compositions of perillic acid compounds” (B.R.A.I.N. BIOTECHNOLOGY RESEARCH AND INFORMATION NETWORK AG, priority 2016, dated 2022).
# Assays:
# [1] = test system: Candida albicans ATCC®10231; assay: MIC, microdilution method adapted from DIN EN ISO 20776-1:2006; format: cell-based; settings: no growth after 24 h and 72 h
# Procedure: (§1) The antimicrobial activity of sodium perillate was examined in vitro using the microdilution method adapted from DIN EN ISO 20776-1:2006. R-Perillic acid and S-perillic acid were used as reference compounds. All experiments were done in 96-well plates in a final volume of 200 μL. Stock solutions of the investigated compounds were prepared in 25 mM buffer. The procedure was conducted as following: 4 μL of the particular stock solution were mixed with 196 μL culture medium containing a defined inoculum of the respective target strain. Sterile controls (not inoculated) and growth controls (buffer in-stead of compound added) were performed. All compound concentrations were tested in triplicate. The following strains were examined: Escherichia coli ATCC®8739, Pseudomonas aeruginosa ATCC®9027, Stapyhlococcus aureus ATCC®6538, Candida albicans ATCC®10231 and Aspergillus brasiliensis ATCC®16404. The following culture media were used: Mueller-Hinton II Bouillon (Escherichia coli, Pseudomonas aeruginosa and Staphylococcus aureus), yeast peptone dextrose (Candida albicans) and potato dextrose (Aspergillus brasiliensis). All culture media were buffered with 25 mM MES-buffer. For compound testing the plates were incubated at 37° C. (Escherichia coli, Pseudomonas aeruginosa and Staphylococcus aureus), at 28° C. (Candida albicans) and at 25° C. (Aspergillus brasiliensis). Plates were evaluated after 24 h and 72 h, respectively. The minimal inhibitory concentration is defined as the concentration where no microbial growth was observed after 24 h and 72 h incubation at the specified temperature.
# (§2) Table 1 Determination of the minimal inhibition concentration (MIC, % w/v) of sodium perillate against five classical spoiling organisms under acidic (pH<6.5) and alkaline (pH>7.5) conditions using the microdilution method adapted according to DIN EN ISO 20776-1:2006. The experiments were performed in micro-well plates in a final volume of 200 μL. MIC-values are given according to the following letter code. A>1% w/v, B=0.5-1% w/v, C=0.1-0.5% w/v. D<0.1% w/v.
# [2] = test system: Aspergillus brasiliensis ATCC®16404; assay: as above; format: cell-based; settings: pH <6.5; no growth after 24 h and 72 h
# Procedure: as §1, §2
# [3] = test system: Escherichia coli ATCC®8739; assay: as above; format: cell-based; settings: no growth after 24 h and 72 h
# Procedure: as §1, §2
# [4] = test system: Staphylococcus aureus ATCC®6538; assay: as above; format: cell-based; settings: no growth after 24 h and 72 h
# Procedure: as §1, §2
# [5] = test system: Pseudomonas aeruginosa ATCC®9027; assay: as above; format: cell-based; settings: no growth after 24 h and 72 h
# Procedure: as §1, §2
# [6] = Solubility in water-based systems; format: physicochemical; settings: neutral pH; compared to the free perillic acid
# [7] = test system: Candida albicans ATCC®10231; assay: Conservation efficacy testing in cosmetic oil-water-emulsion; format: cell-based; settings: O/W emulsion pH 5-6, room temperature
# Procedure: (§3) The conservation efficacy of sodium perillate in a final product was determined using two different formulations: • a) an oil-water-emulsion pH 5.5 (example for a cosmetic product), • b) a water-based glucose solution at pH 3.5 (example for a non-carbonated soft drink).
# (§4) Hereby, a defined inoculum of the test strains was added directly to the formulations. In order to examine product preservation by sodium perillate or perillic acid, the formulations were incubated at room temperature for 4 to 16 weeks, respectively. Samples were taken every 7 days and […] (cfu) were counted on agar plates.
# (§5) Among others the following strains were used to determine the efficacy of sodium peril-late in an oil-water emulsion: Escherichia coli ATCC®8739, Pseudomonas aeruginosa ATCC®9027, Stapyhlococcus aureus ATCC®6538, Candida albicans ATCC®10231, and Aspergillus brasiliensis ATCC®16404.
# (§6) Table 2 Conservation efficacy testing of a typical cosmetic oil-water-emulsion at pH 5-6 supplemented with sodium perillate using five classical microbial test strains. All formulations were inoculated with a defined cell concentration and incubated over a time of 28 days at room temperature under standardized conditions. After 7, 14, 21 and 28 days samples were taken and the colony forming units (cfu) were calculated.
# [8] = test system: Aspergillus brasiliensis ATCC®16404; assay: as above; format: cell-based; settings: O/W emulsion pH 5-6, room temperature
# Procedure: as §3, §4, §5, §6
# [9] = test system: Escherichia coli ATCC®8739; assay: as above; format: cell-based; settings: O/W emulsion pH 5-6, room temperature
# Procedure: as §3, §4, §5, §6
# [10] = test system: Staphylococcus aureus ATCC®6538; assay: as above; format: cell-based; settings: O/W emulsion pH 5-6, room temperature
# Procedure: as §3, §4, §5, §6
# [11] = test system: Pseudomonas aeruginosa ATCC®9027; assay: as above; format: cell-based; settings: O/W emulsion pH 5-6, room temperature
# Procedure: as §3, §4, §5, §6
# Lactobacillus sp. = assay: Conservation efficacy testing in aqueous formulation (juice matrix); format: cell-based; settings: aqueous formulation (juice matrix) pH 2.5-4, room temperature
# Procedure: as §3, §4
# (§7) Among others the following species were used to determine the efficacy of sodium perillate in a water-based glucose formulation: Saccharomyces sp., Schizosaccharomyces sp., Asaia sp., Lactobacillus sp., and Aspergillus sp.
# (§8) Table 3 Illustration of cell reduction using sodium perillate in a typical aqueous formulation (juice matrix) for beverages pH 2.5-4 supplemented with sodium perillate. Conservation efficacy testing was performed using five microbial test strains: Saccharomyces sp., Schizosaccharomyces sp., Asaia sp., Lactobacillus sp., and Aspergillus sp. All formulations were inoculated with a defined cell concentration and incubated at room temperature under standardized conditions. After 7, 14, 21 and 28 days samples were taken and the colony forming units (cfu) were calculated and shown here.
# Saccharomyces sp. = assay: as above; format: cell-based; settings: aqueous formulation (juice matrix) pH 2.5-4, room temperature
# Procedure: as §3, §4, §7, §8
# Aspergillus sp. = assay: as above; format: cell-based; settings: aqueous formulation (juice matrix) pH 2.5-4, room temperature
# Procedure: as §3, §4, §7, §8
# Asaia sp. = assay: as above; format: cell-based; settings: aqueous formulation (juice matrix) pH 2.5-4, room temperature
# Procedure: as §3, §4, §7, §8
# Schizosaccharomyces sp. = assay: as above; format: cell-based; settings: aqueous formulation (juice matrix) pH 2.5-4, room temperature
# Procedure: as §3, §4, §7, §8
# [12] = Stability investigation of sodium perillate on storage (TLC, GC, HPLC recovery); format: physicochemical; settings: stored 12 months at 4° C., 22-25° C. and 50° C., gas and liquid chromatography
# Procedure: Sodium perillate was prepared by adding a defined volume of a 0.1 M sodium hydroxide (NaOH) solution to perillic acid to give an aqueous solution of pH 7.0. The water was removed by evaporation resulting in a colorless solid. In order to investigate the stability of sodium perillate, the compound was stored for 12 months at 4° C., 22-25° C. (resemble room temperature) and 50° C. At certain time intervals all samples were examined and evaluated qualitatively using thin layer chromatography and quantitatively using gas and liquid chromatography. The results were compared to the stability of R perillic acid. […] These experiments highlight the long-term stability of sodium perillate.
# Table 5 Recovery of sodium perillate measured by liquid chromatography (HPLC). Column: Phenomenex Luna 018. Method: 70% acetonitrile and 30% water, isocratic. Recovery values were calculated according to a calibration curve performed with sodium perillate in the range of 0.05-2 mM in acetonitrile. Detection was carried out by UV-light (DAD-detector) at 217 and 240 nm.
# pKa = format: physicochemical; settings: weak acid of which sodium perillate is the salt
smiles,measurement,setting,value
"C=C(C)[C@H]1CC=C(C(=O)O)CC1 [R-Perillic Acid, R-Perillic acid]",MIC,[1]; pH <6.5,D (D<0.1% w/v)
same,MIC,[1]; pH >7.5,C (C=0.1-0.5% w/v)
same,MIC,[2],D (D<0.1% w/v)
same,MIC,[3]; pH <6.5,C (C=0.1-0.5% w/v)
same,MIC,[3]; pH >7.5,B (B=0.5-1% w/v)
same,MIC,[4]; pH <6.5,D (D<0.1% w/v)
same,MIC,[4]; pH >7.5,B (B=0.5-1% w/v)
same,MIC,[5]; pH <6.5,B (B=0.5-1% w/v)
same,MIC,[5]; pH >7.5,A (A>1% w/v)
"C=C(C)C1CC=C(C(=O)[O-])CC1.[Na+] (stereo not drawn) [Sodium perillate, sodium perillate]",Solubility in water-based systems,[6],higher solubility
same,MIC,[1]; pH <6.5,D (D<0.1% w/v)
same,MIC,[1]; pH >7.5,C (C=0.1-0.5% w/v)
same,MIC,[2],D (D<0.1% w/v)
same,MIC,[3]; pH <6.5,C (C=0.1-0.5% w/v)
same,MIC,[3]; pH >7.5,B (B=0.5-1% w/v)
same,MIC,[4]; pH <6.5,D (D<0.1% w/v)
same,MIC,[4]; pH >7.5,B (B=0.5-1% w/v)
same,MIC,[5]; pH <6.5,B (B=0.5-1% w/v)
same,MIC,[5]; pH >7.5,A (A>1% w/v)
same,Reduced log-steps After T28,[7]; after 28 days,2 log-steps
same,CFU/mL at Sampling Timepoint T0,[7]; day 0,"68,000 CFU/mL"
same,CFU/mL at Sampling Timepoint T7,[7]; day 7,"8,260 CFU/mL"
same,CFU/mL at Sampling Timepoint T14,[7]; day 14,"1,925 CFU/mL"
same,CFU/mL at Sampling Timepoint T21,[7]; day 21,"4,100 CFU/mL"
same,CFU/mL at Sampling Timepoint T28,[7]; day 28,630 CFU/mL
same,Reduced log-steps After T28,[8]; after 28 days,2 log-steps
same,CFU/mL at Sampling Timepoint T0,[8]; day 0,"11,000 CFU/mL"
same,CFU/mL at Sampling Timepoint T7,[8]; day 7,"13,000 CFU/mL"
same,CFU/mL at Sampling Timepoint T14,[8]; day 14,"2,270 CFU/mL"
same,CFU/mL at Sampling Timepoint T21,[8]; day 21,"2,900 CFU/mL"
same,CFU/mL at Sampling Timepoint T28,[8]; day 28,170 CFU/mL
same,Reduced log-steps After T28,[9]; after 28 days,3 log-steps
same,CFU/mL at Sampling Timepoint T0,[9]; day 0,"1,680,000 CFU/mL"
same,CFU/mL at Sampling Timepoint T7,[9]; day 7,"53,500 CFU/mL"
same,CFU/mL at Sampling Timepoint T14,[9]; day 14,190 CFU/mL
same,CFU/mL at Sampling Timepoint T21,[9]; day 21,370 CFU/mL
same,CFU/mL at Sampling Timepoint T28,[9]; day 28,"1,430 CFU/mL"
same,Reduced log-steps After T28,[10]; after 28 days,6 log-steps
same,CFU/mL at Sampling Timepoint T0,[10]; day 0,"130,000 CFU/mL"
same,CFU/mL at Sampling Timepoint T7,[10]; day 7,0 CFU/mL
same,CFU/mL at Sampling Timepoint T14,[10]; day 14,0 CFU/mL
same,CFU/mL at Sampling Timepoint T21,[10]; day 21,0 CFU/mL
same,CFU/mL at Sampling Timepoint T28,[10]; day 28,0 CFU/mL
same,Reduced log-steps After T28,[11]; after 28 days,3 log-steps
same,CFU/mL at Sampling Timepoint T0,[11]; day 0,"580,000 CFU/mL"
same,CFU/mL at Sampling Timepoint T7,[11]; day 7,"45,000 CFU/mL"
same,CFU/mL at Sampling Timepoint T14,[11]; day 14,"11,500 CFU/mL"
same,CFU/mL at Sampling Timepoint T21,[11]; day 21,805 CFU/mL
same,CFU/mL at Sampling Timepoint T28,[11]; day 28,235 CFU/mL
same,CFU/mL at Sampling Timepoint T0,Lactobacillus sp.; day 0,10 CFU/mL
same,CFU/mL at Sampling Timepoint T7,Lactobacillus sp.; day 7,10 CFU/mL
same,CFU/mL at Sampling Timepoint T14,Lactobacillus sp.; day 14,56 CFU/mL
same,CFU/mL at Sampling Timepoint T21,Lactobacillus sp.; day 21,340 CFU/mL
same,CFU/mL at Sampling Timepoint T28,Lactobacillus sp.; day 28,910 CFU/mL
same,CFU/mL at Sampling Timepoint T0,Saccharomyces sp.; day 0,10 CFU/mL
same,CFU/mL at Sampling Timepoint T7,Saccharomyces sp.; day 7,"23,900 CFU/mL"
same,CFU/mL at Sampling Timepoint T14,Saccharomyces sp.; day 14,"52,900 CFU/mL"
same,CFU/mL at Sampling Timepoint T21,Saccharomyces sp.; day 21,"530,000 CFU/mL"
same,CFU/mL at Sampling Timepoint T28,Saccharomyces sp.; day 28,"470,000 CFU/mL"
same,CFU/mL at Sampling Timepoint T0,Aspergillus sp.; day 0,10 CFU/mL
same,CFU/mL at Sampling Timepoint T7,Aspergillus sp.; day 7,0 CFU/mL
same,CFU/mL at Sampling Timepoint T14,Aspergillus sp.; day 14,0 CFU/mL
same,CFU/mL at Sampling Timepoint T21,Aspergillus sp.; day 21,0 CFU/mL
same,CFU/mL at Sampling Timepoint T28,Aspergillus sp.; day 28,0 CFU/mL
same,CFU/mL at Sampling Timepoint T0,Asaia sp.; day 0,45 CFU/mL
same,CFU/mL at Sampling Timepoint T7,Asaia sp.; day 7,"17,250 CFU/mL"
same,CFU/mL at Sampling Timepoint T14,Asaia sp.; day 14,"8,940 CFU/mL"
same,CFU/mL at Sampling Timepoint T21,Asaia sp.; day 21,725 CFU/mL
same,CFU/mL at Sampling Timepoint T28,Asaia sp.; day 28,685 CFU/mL
same,CFU/mL at Sampling Timepoint T0,Schizosaccharomyces sp.; day 0,55 CFU/mL
same,CFU/mL at Sampling Timepoint T7,Schizosaccharomyces sp.; day 7,350 CFU/mL
same,CFU/mL at Sampling Timepoint T14,Schizosaccharomyces sp.; day 14,"3,265 CFU/mL"
same,CFU/mL at Sampling Timepoint T21,Schizosaccharomyces sp.; day 21,"4,990 CFU/mL"
same,Degradation products detected,[12],no degradation products
C=C(C)[C@@H]1CC=C(C(=O)O)CC1 [perillic acid],pKa,pKa,4.96
"C=C(C)[C@@H]1CC=C(C(=O)O)CC1 [S-Perillic Acid, S-perillic acid]",MIC,[1]; pH <6.5,D (D<0.1% w/v)
same,MIC,[1]; pH >7.5,C (C=0.1-0.5% w/v)
same,MIC,[2],D (D<0.1% w/v)
same,MIC,[3]; pH <6.5,C (C=0.1-0.5% w/v)
same,MIC,[3]; pH >7.5,B (B=0.5-1% w/v)
same,MIC,[4]; pH <6.5,D (D<0.1% w/v)
same,MIC,[4]; pH >7.5,B (B=0.5-1% w/v)
same,MIC,[5]; pH <6.5,B (B=0.5-1% w/v)
same,MIC,[5]; pH >7.5,A (A>1% w/v)
